Experimental data as given in patent US8785499B2 (priority 2009, dated 2014).

What follows are compounds tested against baNadD (Bacillus anthracis, UniProt C3L5T6) (assay: biochemical).
Format: biochemical

Sequence of baNadD (C3L5T6 whole entry, looked up): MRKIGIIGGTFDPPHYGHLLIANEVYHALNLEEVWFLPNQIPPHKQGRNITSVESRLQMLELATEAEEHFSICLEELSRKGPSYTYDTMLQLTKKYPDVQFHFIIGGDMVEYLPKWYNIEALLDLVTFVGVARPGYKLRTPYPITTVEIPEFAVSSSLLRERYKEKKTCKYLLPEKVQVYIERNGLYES

SMILES | […]. anthracis [%]
Cn1c(=O)n(C)c2cc(S(=O)(=O)NCCC(=O)O)ccc21 [compound 249] | 1
NNC(=O)CNC(=O)CNS(=O)(=O)c1ccc(Cl)cc1 [compound 250] | 0
CSc1nc2nc(N)nc(N)c2s1 [compound 251] | 0
O=[N+]([O-])c1ccc2[nH]c(CCc3nc4cc([N+](=O)[O-])ccc4[nH]3)nc2c1 [compound 252] | 0
Nc1nc(-c2cc([N+](=O)[O-])cc([N+](=O)[O-])c2)n[nH]1 [compound 253] | 7
Nc1[nH][nH]c(=O)c1/N=N/c1ccccc1F [compound 254] | 0
OCC#CCSc1nnc(-c2cccc(Br)c2)o1 [compound 255] | 0
O=C(N/N=C/c1ccc(Br)cc1)c1[nH]ncc1Br [compound 256] | 0
COC(=O)c1ccc(NC(=O)CNc2ccc(C(=O)O)cc2)cc1 [compound 258] | 0
Cc1ccc(C2C(C#N)=C(N)Oc3ncnc(O)c32)cc1 (centres unmarked) [compound 259] | 0
O=C(NCCNc1ccc([N+](=O)[O-])cc1)c1ccccc1Br [compound 260] | 0
O=C(O)CC(NC(=O)OCc1ccccc1)c1ccccc1 (centres unmarked) [compound 261] | 24
Cc1nn(-c2ccc([N+](=O)[O-])cc2)c(Cl)c1S(=O)(=O)O [compound 262] | 5
Nc1nnc(SCC(=O)Nc2ccc(Cl)c(Cl)c2)s1 [compound 263] | 0
Cc1ccc([N+](=O)[O-])cc1NS(=O)(=O)c1ccc(F)cc1 [compound 264] | 0
Cc1noc(C)c1S(=O)(=O)Nc1ccc(Br)cc1 [compound 265] | 4
Cc1nnc(N/N=C/c2ccccc2C(=O)O)nc1O [compound 267] | 4
NC(N)=NS(=O)(=O)c1ccc(NC(=O)c2cccc([N+](=O)[O-])c2)cc1 [compound 268] | 0
NS(=O)(=O)c1cc(C(=O)OCC(=O)c2ccccc2)ccc1Cl [compound 269] | 22

SMILES | […]. anthracis [%]
O=C(O)c1ccc(CSCc2ccccc2)o1 [compound 270] | 21
COC(=O)CSc1nnc(-c2ccc(Cl)cc2Cl)o1 [compound 274] | 0
O=C(O)c1ccc(-c2ccc(C(=O)O)c(C(=O)O)c2)cc1C(=O)O [compound 275] | 0
O=C(O)c1ccc2nc(-c3ccc(O)cc3)sc2c1 [compound 277] | 0
Nc1nnnn1/N=C/c1ccccc1 [compound 278] | 0
O=C(Nc1ccc(Cl)cn1)c1cccnc1 [compound 279] | 0
O=C(Cn1cnc2ccccc2c1=O)Nc1cccc(C(=O)O)c1 [compound 280] | 0
CC(=O)c1ccc(NS(=O)(=O)c2ccc(N)cc2)cc1 [compound 283] | 0
O=S(=O)(Nc1nc2ccccc2s1)c1ccc(Cl)s1 [compound 284] | 7
Cn1c(SCC(N)=O)nnc1-c1ccc(Br)cc1 [compound 286] | 0
Nc1c(C(=O)Nc2ccc(F)c(F)c2)sc2nc(-c3ccncc3)ccc12 [compound 287] | 0
Nc1nc(-c2ccc(Cl)c([N+](=O)[O-])c2)n[nH]1 [compound 288] | 0
O=C(CNS(=O)(=O)c1ccc(Br)s1)NCCC1=CCCCC1 [compound 289] | 4
CC(=O)O/C(=C\c1cn(C(C)=O)c2ccccc12)C(=O)O [compound 291] | 0
O=S(=O)(N/N=C/c1cccc(OC2CSC2)c1)c1ccccc1 [compound 292] | 0
O=C(O)CSc1cccc(SCC(=O)O)c1 [compound 293] | 5
O=C(NCc1ccccn1)c1ccc(Cl)cc1Cl [compound 294] | 0
COc1ccc(-c2noc(COc3ccc(Cl)cc3Cl)n2)cc1 [compound 295] | 11

These compounds were tested against ecNadD (Escherichia coli (strain K12), UniProt P0A752) (assay: biochemical).
Format: biochemical

SMILES | […]. coli [%]
Cn1c(=O)n(C)c2cc(S(=O)(=O)NCCC(=O)O)ccc21 [compound 249] | 0
NNC(=O)CNC(=O)CNS(=O)(=O)c1ccc(Cl)cc1 [compound 250] | 0
CSc1nc2nc(N)nc(N)c2s1 [compound 251] | 0
O=[N+]([O-])c1ccc2[nH]c(CCc3nc4cc([N+](=O)[O-])ccc4[nH]3)nc2c1 [compound 252] | 0
Nc1nc(-c2cc([N+](=O)[O-])cc([N+](=O)[O-])c2)n[nH]1 [compound 253] | 0
Nc1[nH][nH]c(=O)c1/N=N/c1ccccc1F [compound 254] | 0
OCC#CCSc1nnc(-c2cccc(Br)c2)o1 [compound 255] | 0
O=C(N/N=C/c1ccc(Br)cc1)c1[nH]ncc1Br [compound 256] | 0
COC(=O)c1ccc(NC(=O)CNc2ccc(C(=O)O)cc2)cc1 [compound 258] | 0
Cc1ccc(C2C(C#N)=C(N)Oc3ncnc(O)c32)cc1 (centres unmarked) [compound 259] | 0
O=C(NCCNc1ccc([N+](=O)[O-])cc1)c1ccccc1Br [compound 260] | 0
O=C(O)CC(NC(=O)OCc1ccccc1)c1ccccc1 (centres unmarked) [compound 261] | 0
Cc1nn(-c2ccc([N+](=O)[O-])cc2)c(Cl)c1S(=O)(=O)O [compound 262] | 0
Nc1nnc(SCC(=O)Nc2ccc(Cl)c(Cl)c2)s1 [compound 263] | 0
Cc1ccc([N+](=O)[O-])cc1NS(=O)(=O)c1ccc(F)cc1 [compound 264] | 0
Cc1noc(C)c1S(=O)(=O)Nc1ccc(Br)cc1 [compound 265] | 0
Cc1nnc(N/N=C/c2ccccc2C(=O)O)nc1O [compound 267] | 0
NC(N)=NS(=O)(=O)c1ccc(NC(=O)c2cccc([N+](=O)[O-])c2)cc1 [compound 268] | 0
NS(=O)(=O)c1cc(C(=O)OCC(=O)c2ccccc2)ccc1Cl [compound 269] | 0

SMILES | […]. coli [%]
O=C(O)c1ccc(CSCc2ccccc2)o1 [compound 270] | 0
COC(=O)CSc1nnc(-c2ccc(Cl)cc2Cl)o1 [compound 274] | 0
O=C(O)c1ccc(-c2ccc(C(=O)O)c(C(=O)O)c2)cc1C(=O)O [compound 275] | 0
O=C(O)c1ccc2nc(-c3ccc(O)cc3)sc2c1 [compound 277] | 0
Nc1nnnn1/N=C/c1ccccc1 [compound 278] | 0
O=C(Nc1ccc(Cl)cn1)c1cccnc1 [compound 279] | 0
O=C(Cn1cnc2ccccc2c1=O)Nc1cccc(C(=O)O)c1 [compound 280] | 0
CC(=O)c1ccc(NS(=O)(=O)c2ccc(N)cc2)cc1 [compound 283] | 0
O=S(=O)(Nc1nc2ccccc2s1)c1ccc(Cl)s1 [compound 284] | 0
Cn1c(SCC(N)=O)nnc1-c1ccc(Br)cc1 [compound 286] | 0
Nc1c(C(=O)Nc2ccc(F)c(F)c2)sc2nc(-c3ccncc3)ccc12 [compound 287] | 0
Nc1nc(-c2ccc(Cl)c([N+](=O)[O-])c2)n[nH]1 [compound 288] | 0
O=C(CNS(=O)(=O)c1ccc(Br)s1)NCCC1=CCCCC1 [compound 289] | 0
CC(=O)O/C(=C\c1cn(C(C)=O)c2ccccc12)C(=O)O [compound 291] | 0
O=S(=O)(N/N=C/c1cccc(OC2CSC2)c1)c1ccccc1 [compound 292] | 0
O=C(O)CSc1cccc(SCC(=O)O)c1 [compound 293] | 0
O=C(NCc1ccccn1)c1ccc(Cl)cc1Cl [compound 294] | 0
COc1ccc(-c2noc(COc3ccc(Cl)cc3Cl)n2)cc1 [compound 295] | 0
